# From US20250100962A1 (CITY OF HOPE, priority 2023, published 2025)
# Entries after “also recorded” stand apart in the source; their conditions may differ.
# Key:
# [1] = tested on: CLOCK/Bmal1-mediated transcription; assay: Luciferase assay: 293A cells transfected with Bmal1 and CLOCK, Period2-driven luciferase reporter; type: cell-based; conditions: 0.2 μM for 6 hours, Per2-luciferase reporter
# Description: Cells were seeded at 4×10^5 concentration on 24 well plates. The seeding density was decided after trying several densities and choosing the one that after 24 h lead to 90% confluence. At 90% confluence cell transfection was performed using Opti-MEMTM Reduced Serum Medium (Gibco-Thermo Fisher CN:31985062) with PGL2, PRL, pcDNA3.0-BMAL1-His, PcDNA3.0-6×Myc-CLOCK (AddGene CN: 47334) pcDNA3.0-3×FLAG-cry2 plasmids and PEI max 40 k (Polysciences Inc CN: 24765-1). After 24 h of transfection, cells were treated with desired compounds and controls in 10% FBS 1% PSG DMEM media for desired times. Cells were extracted with 1×PLB provided in the Dual-Luciferase® Reporter Assay Kit (Promega CN: E1910) and transferred to 96-well black plate to be treated with LARII and Stop & Glo components according to protocol of the Dual-Luciferase® Reporter Assay Kit (Promega CN: E1910). Luminescence was measured on microplate (ELISA) reader (TECAN infinite […]). The mean and standard deviation values were calculated for each well and graphed.
# [2] = tested on: CLOCK and Bmal1 interaction; assay: Co-immunoprecipitation of Bmal1 with Myc-CLOCK; type: cell-based
# U2OS cells = assay: Clock gene and protein expression in U2OS cells (immunoblot, RT-qPCR); type: cell-based; conditions: 24 h
# Description: (§1) Total protein (20-30 μg) was extracted using standard IP Lysis buffer (3% NaCl, 5% Tris-HCl, 10% Glycerol, 0.5% Triton X-10 in Sterile MilliQ water) and resolved on 10% SDS-Page gels followed by western blotting on Immun-Blot PVDF Membranes for Protein Blotting (Bio-rad). Antibodies used were diluted in 5% milk (Labscientific CN: M0841). Membranes were washed with TBS-T [10% TBS, 0.1% Tween™ 20 (Fisher BioReagents CN: BP377-500)]. Images were developed using Luminol solution 1:1 SuperSignal West Pico PLUS Stable Peroxide Solution (Thermo Scientific CN: 1863095) and SuperSignal West Pico PLUS Luminol Enhancer Solution (Thermo Scientific CN: 1863094) on chemiluminescence imager (GE Healthcare Bio-Sciences AB Amersham Imager 680).
# (§2) Cells extracted with TRIzol™ Reagent (Ambion CN: 15596018) were collected. RNA extraction was performed with Chloroform (Fisher Chemical CN: C298-500) and Isopropanol (Fisher Chemical CN: A451SK-4) extraction followed by two purification steps with 75% Ethanol (Fisherbrand CN: HC-800-1GAL) and elution in Sterile MilliQ water.
# (§3) The RNA concentration was measured using Nanodrop spectrophotometer (Thermo Fisher). Following RNA extraction, retro transcription was performed using RevertAid RT Reverse Transcription Kit (Thermo Fisher CN: K1691) and run on SimpliAmp Thermal Cycler (Thermo Fisher CN: A24811) according to the kit procedure. Quantitative PCR was performed using PowerUp™ SYBR™ Green Master Mix (Thermo Fisher CN: A25742) using a dilution of 5:2:1 master mix, RNA and H2Omq according to the protocol on ViiA 7 Real-Time PCR System (Applied Biosystems). Relative expression levels were determined using the comparative Ct method to normalize target genes to 36B4 internal controls.
# C2C12 myoblasts = assay: Clock and Wnt pathway gene/protein expression in C2C12 myoblasts during myogenic differentiation; type: cell-based, mouse
# Description: as §1, §2, §3
# Pictures were taken every day to monitor morphological progression, and proteins and RNA samples were collected on days indicated.
# [3] = tested on: 3T3-L1 preadipocytes containing Per2::dLuc luciferase reporter; assay: Bioluminescence monitoring of Per2::dLuc reporter in 3T3-L1 preadipocytes; type: cell-based
# Description: Generation of stable adipogenic progenitor cell lines containing Per2::dLuc. 3T3-L1 preadipocytes and the C3H10T1/2 mesenchymal stem cells obtained from ATCC were used for Per2:: dLuc lentiviral transduction and stable clone selection using puromycin, as described previously (Guo et al., 2012). Briefly, cells were transfected with lentiviral packaging plasmids (pSPAX.2 and pMD2.G) and lentivirus vectors Per2::dLuc using PEI Max (Polysciences). At 48 hours post-transfection, lentiviruses were collected. 3T3-L1 and C3H10T1/2 […] cells were infected using collected lentiviral media supplemented with polybrene. 24 hours following lentiviral infection, stable cell lines were selected in the presence of 2 μg/ml puromycin.
# Continuous Bioluminescence monitoring of Per2:: dLuc luciferase reporter. 3T3-L1 and C3H10T1/2 cells containing a Per2::dLuc luciferase reporter were generated as described previously (Xiong et al., 2023). […] Raw and subtracted results of real-time bioluminescence recording data for 6 days were exported, and data was calculated as luminescence counts per second, as previously described (Xiong, Li, Nam et al., 2022). […] Briefly, raw data following the first cycle from day 2 to […] were fitted to a linear baseline, and the baseline-subtracted data (polynomial number=1) were fitted to a sine wave, from which period length and goodness of fit and damping constant were determined.
# [4] = tested on: primary myoblasts derived from patients with Duchene Muscular Dystrophy; assay: Myogenic induction in human DMD primary myoblasts (immunoblot); type: cell-based; conditions: 3 days of differentiation
# Text: FIGS. 40A-40B. Chlorhexidine and CM002 promote myogenic induction in human DMD primary myoblasts. Using primary myoblasts derived from patients with Duchene Muscular Dystrophy, we determined the effect of Chlorhexidine and CM002 on promoting myogenic induction.
# mdx mice = type: in vivo; conditions: 10 mg/kg IP daily, 3 doses; vs non-treated or DMSO
# Description: FIGS. 48A-48C. Systemic delivery of CM002 by intraperitoneal injection improves muscle strength in dystrophic mdx mice. Based on the PK analysis, we determined the maximal lethal dose in mdx mice via daily intraperitoneal injections using escalating doses. Starting doses were tested at 10, 20 and 30 mg/Kg/day, for 3 consecutive days in male or female mdx mice (FIG. 48A).
Compound,induction of CLOCK/Bmal1-activated transcription [1],Bmal1 interaction with CLOCK C267 mutant ([2]; Cysteine to Alanine mutant of CLOCK),"Bmal1 immunoprecipitated by Myc-CLOCK (CLOCK/Bmal1 interaction) ([2]; wild-type CLOCK, CHX 0.5 and 1 μM)",CLOCK and Bmal1 transcripts (U2OS cells; RT-qPCR),"Dbp, Nr1d1, Nr1d2 and Cry2 transcripts (U2OS cells; RT-qPCR)",Bmal1 protein expression (U2OS cells; immunoblot),CLOCK protein levels (U2OS cells; immunoblot),Rev-erbα (Nr1d1) and Period 2 (Per 2) protein (U2OS cells; immunoblot),"CLOCK and Bmal1 protein levels with targets Rev-erbα and Cry2 (C2C12 myoblasts; 0.5 uM, through 6 days of differentiation)","induction of Wnt10a, Fzd5 and β-catenin in Bmal1-deficient myoblasts (C2C12 myoblasts; BMKD myoblasts)","induction of Clock, Bmal1, Rev-erbα and Per2 in Bmal1 shRNA (BMKD) cells (C2C12 myoblasts; day 4 of myogenic differentiation, vs scrambled control)","Wnt10a, Fzd5 and β-catenin expression (C2C12 myoblasts; scrambled control (SC) myoblasts, RT-qPCR)",clock cycling amplitude [3],clock period length [3],MyoD and Myogenin protein (myogenic factors) [4],Bmal1 protein expression ([4]; 0.2 and 0.5 μM),increase of grip strength (mdx mice)
"[H]/N=C(\N/C(=N/[H])NCCCCCCNC(=N)NC(=N)Nc1ccc(Cl)cc1)Nc1ccc(Cl)cc1 [CHX, chlorhexidine]",~26%,failed to increase Bmal1 interaction with CLOCK C267 mutant,sufficient to augment their interaction,markedly up-regulated,stimulated,elevated Bmal1 expression at 0.2 and 0.5 μM,sufficient to induce CLOCK protein levels,induced by CHX in a largely dose-dependent manner,robustly stimulated,completely abolished in Bmal1-deficient myoblasts; also recorded: abolished in Bmal1-deficient cells,completely abolished in the BMKD cells,significantly induced by CHX at 0.5 μM with tendency toward induction at 0.2 μM,increasing amplitude,reducing period length,,,
CCCCCC/C=N/C(=N)NC(=N)Nc1ccc(Cl)cc1 [CM002],,,,,,,,,,,,,,,Robust inductions of MyoD and Myogenin protein,significantly elevated protein expression of Bmal1,~16%
